Values quoted from earlier work as cited in patent publication US11925768B2, “Method for decolonizing mammalian skin” (AVADIM HEALTH IP, INC., priority 2014, dated 2024).

Conditions: concentrations as low as

## O=S1(=O)CCN(CN2CCS(=O)(=O)NC2)CN1 [Taurolidine, taurolidine]
  concentration producing intense pain in most tissues: about 10 mg/ml
